This note sets out measurements from PubChem BioAssay AID1845197 (Molecular Pharmacology Branch, DTP, NCI, 2023).

This experiment deals with 349418-098-R tumor spheroid viability. Description: Anticancer human tumor 349418-098-R patient-derived lung adenocarcinoma cell line growth inhibition. To be noted: spheroids with HUVEC and MSC; for viability, T/C: stronger effect = lower value. An excerpt: Multicellular complex tumor spheroid response to DNA repair inhibitors in combination with DNA-damaging drugs
This study explores the anticancer activities of DNA-damaging drugs and inhibitors of DNA damage repair, both as single agents and in combinations. Complex tumor spheroids comprised of malignant cells, endothelial cells and mesenchymal stem cells served as an in vitro model for human solid tumors. This model system incorporates physiologically relevant features and patient-derived or established malignant cell lines with clinically relevant genetic alterations from many tumor types. Twenty-six patient-derived or established malignant cell lines were evaluated representing sarcoma, melanoma, small cell lung cancer (SCLC), non-small cell lung cancer (NSCLC), as well as bladder, ovarian and pancreatic cancers. The concentration ranges selected for each drug and investigational agent were based upon clinically achievable concentrations if the clinical Cmax of the agent was known.
Compounds. The drugs and compounds olaparib (NSC753686), talazoparib (NSC767125), berzosertib (NSC777718), elimusertib (NSC800525), nedisertib (NSC802822), VX-984 (NSC792969), AZD-1390 (NSC803789), temozolomide (NSC362856), topotecan (NSC609699), trabectedin (NSC813783), staurosporine (NSC755774), and gemcitabine (NSC613327) were obtained from the National Cancer Institute (NCI) Developmental Therapeutics Program Chemical Repository. The FDA-approved anticancer drug set is available from the Developmental Therapeutics Program at https://dtp.cancer.gov/organization/dscb/obtaining/available_plates.htm. […] The stock solutions were prepared in dimethyl sulfoxide (DMSO, Sigma-Aldrich, St. Louis, MO, cat. D2650) at 400-fold the tested concentration and stored at -70 degrees C. Prior to their use, the stock solutions were diluted in fresh medium and the final DMSO concentration in the assay was 0.25% (v/v). All drugs and investigational agents were tested over a range starting from a high concentration at or near the clinical Cmax and decreasing in half-log increments. If the clinical Cmax for an agent had not been determined, the highest concentration tested was 10 microM.
Cell Lines. The patient-derived cancer cell (PDC) lines: 156681-154-R-J1-PDC, 283228-195-R-J1-PDC, 287954-098-R-J1-PDC, 292921-168-R-J2-PDC, 349418-098-R-PDC, 425362-245-T-J1-PDC, 556581-035-R-J1-PDC, and BL0293-F563-PDC were received from the NCI Patient-Derived Models Repository (PDMR, https://pdmr.cancer.gov). The established cell lines HS-SY-2 (RRID:CVCL_8719), MPNST, and SYO-1 (RRID:CVCL_7146) were obtained from the Sloan Kettering Institute. The alveolar soft parts sarcoma cell line ASPS-1 (RRID:CVCL_S738) was established at the NCI and grown from internal seed stocks. The following established cell lines were purchased from the American Type Culture Collection (ATCC, Manassas, VA): G-401 (ATCC, cat. CRL-1441, RRID:CVCL_0270), SW982 (ATCC, cat. HTB-93, RRID:CVCL_1734), VA-ES-BJ (ATCC, cat. CRL-2138, RRID:CVCL_1785), NCI-H719 (ATCC, cat. CRL-5837, RRID:CVCL_1582), NCI-H196 (ATCC, cat. CRL-5823, RRID:CVCL_1509), NCI-H841 (ATCC, cat. CRL-5845, RRID:CVCL_1595), NCI-H1618 (ATCC, cat. CRL-5879, RRID:CVCL_1480), NCI-H1876 (ATCC, cat. CRL-5902, RRID:CVCL_1503), DMS 114 (ATCC, cat. CRL-2066; RRID:CVCL_1174), NCI-H211 (ATCC, cat. CRL-5824; RRID:CVCL_1529), and SW 1271 (ATCC, cat. CRL-2177, RRID:CVCL_1716). The small cell lung cancer cell line COR-L88 was purchased from Sigma-Aldrich (cat. 92031917-1VL, RRID:CVCL_1141). The non-small cell lung cancer cell lines NCI-H226 (RRID:CVCL_1544) and NCI-H322M (RRID:CVCL_1557) were established at the NCI and grown from internal seed stocks. Pooled donor human umbilical vein endothelial cells (HUVEC, Lonza, cat. CC-2519) and human mesenchymal stem cells (hMSC, Lonza, cat. PT-2501) were purchased from Lonza (Walkersville, MD).
Cell Culture. All cells were maintained in an incubator at 37 degrees C and 5% CO2 with 95% humidity. […]

Where [1] appears, read: compound alone, run of 10/17/2019.
Setting [2] is: compound alone, run of 10/25/2019.

Values joined by “and” are separate entries in the source; they are usually repeats but may differ in a detail not shown here. Equal values may be shown once.
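Also: spheroids exposed to compound for 7 days before measurement.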
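For viability, T/C in this document: percent of vehicle control viability with 100% = DMSO-treated spheroids.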

In general, viability, T/C refers to the result in the treated group divided by that in the control group, in per cent. By IC50 is commonly meant the concentration that gives 50% inhibition. On to `CC(C)n1c(=O)n(C)c2cnc3cc(F)c(-c4ccc(OCCCN5CCCCC5)nc4)cc3c21`, for which the viability, T/C (compound 0.0316 µM) is 89% and 110% (2×); the viability, T/C (compound 0.1 µM) is 97.8% and 97.9% and 106%; the viability, T/C (compound 0.316 µM) was 94.4% and 93.9% and 108%; the viability, T/C (compound 1 µM) is 105% and 97.3% and 108%; the viability, T/C (compound 3.16 µM) was 109% and 102% and 105%; the viability, T/C (compound 10 µM) was 56.8% and 48.3% and 85.3%. Besides, the IC50 (curve of compound) is > 10000 nM and 9630 nM.
In the case of `CC1COCCN1c1cc(-c2ccnn2C)c2ccnc(-c3ccn[nH]3)c2n1` (stereo not drawn), the viability, T/C by setting is: (compound 0.0316 µM) 90.1% and 88.7% and 108%; (compound 0.1 µM) 48.2% and 41.8% and 114%; (compound 0.316 µM) 14.5% and 13% and 23.9%; (compound 1 µM) 11.7% and 10.5% and 18.3%; (compound 3.16 µM) 12.6% and 11.9% and 16.4%; (compound 10 µM) 11.6% (2×) and 11.7%. Besides, where the note is “curve of compound”, the half-maximal inhibitory concentration (IC50) is 95.2 nM and 81.8 nM and 224 nM.
In the case of `CC[C@@]1(O)C(=O)OCc2c1cc1n(c2=O)Cc2cc3c(CN(C)C)c(O)ccc3nc2-1`, the viability, T/C reads like this: (compound 0.003 µM) 99.8% [middle of 10 runs]; (compound 0.00949 µM) 97.5% [middle of 10 runs]; (compound 0.03 µM) 77.6% [middle of 10 runs]; (compound 0.0949 µM) 19.6% [middle of 10 runs]; (compound 0.3 µM) 4.75% [middle of 10 runs]. Further, the IC50 runs as follows: under setting [1], 58.3 nM [middle of 5 runs]; under setting [2], 43.3 nM [middle of 5 runs].
Regarding `CNCc1ccc(-c2cc(-c3nc(-c4ccc(S(=O)(=O)C(C)C)cc4)cnc3N)on2)cc1`, the viability, T/C by setting is: (compound 0.00949 µM) 99.8% and 99.6% and 96.2%; (compound 0.03 µM) 104% and 99.5% and 92.1%; (compound 0.0949 µM) 94.8% and 98.9% and 94.1%; (compound 0.3 µM) 71.1% and 34.7% and 85.6%; (compound 0.949 µM) 8.67% and 9.93% and 16.6%; (compound 3 µM) 2.53% and 1.43% and 6.14%. Also, where the note is “curve of compound”, the IC50 was 442 nM and 228 nM and 544 nM.
For the compound `COc1cc(C)[nH]c(=O)c1CN1CCc2c(Cl)cc(C(OC)C3COC3)c(Cl)c2C1=O` (stereo not drawn), the viability, T/C by setting is: (compound 0.0316 µM) 113% and 98.1% and 118%; (compound 0.1 µM) 115% and 96.7% and 122%; (compound 0.316 µM) 108% and 91.9% and 112%; (compound 1 µM) 104% and 92% and 112%; (compound 3.16 µM) 101% and 79.7% and 118%; (compound 10 µM) 96.4% and 83.6% and 103%. Also, the IC50 (curve of compound) was over 10000 nM.
As for `COc1cc2c(cc1O)CCNC21CSC2c3c(OC(C)=O)c(C)c4c(c3C(COC1=O)N1C(O)C3Cc5cc(C)c(OC)c(O)c5C(C21)N3C)OCO4` (stereo not drawn), the viability, T/C is, setting by setting: (compound 94.9 pM) 90.5% [middle of 10 runs]; (compound 0.0003 µM) 88.1% [middle of 10 runs]; (compound 0.000949 µM) 0.55% [middle of 10 runs]; (compound 0.003 µM) 1.4% [middle of 9 runs]. The IC50 under setting [2] is 0.496 nM [middle of 9 runs].
As to `COc1ccc([C@@H](O)c2cc(-c3ncnc4cc(N5CCOCC5)ccc34)c(F)cc2Cl)nn1`, the viability, T/C runs as follows: (compound 0.0316 µM) 106% and 101% and 93.8%; (compound 0.1 µM) 97.6% and 102% and 111%; (compound 0.316 µM) 105% and 103% and 114%; (compound 1 µM) 112% and 102% and 111%; (compound 3.16 µM) 88% and 62.7% and 101%; (compound 10 µM) 30.2% and 29% and 33.6%. Moreover, where the note is “curve of compound”, the IC50 is 6740 nM and 4890 nM and 7570 nM.
As for `Cc1cc(C)c(CNC(=O)c2cc(-c3ccc(CN4CCOCC4)cc3)cc3c2cnn3C2CCCC2)c(=O)[nH]1`, the viability, T/C was 99.9% and 101% and 92.4% (compound 0.0316 µM); 118% and 95.5% and 100% (compound 0.1 µM); 111% and 98.5% and 101% (compound 0.316 µM); 109% and 97% and 96.8% (compound 1 µM); 126% and 87.5% and 87.7% (compound 3.16 µM); 75.6% and 33.3% and 40.8% (compound 10 µM). Moreover, the IC50 (curve of compound) is > 10000 nM and 7020 nM and 7990 nM.
With `Cc1sc2c(c1C)C(c1ccc(Cl)cc1)=NC(CC(=O)Nc1ccc(O)cc1)c1nnc(C)n1-2` (stereo not drawn), the viability, T/C runs as follows: (compound 0.00949 µM) 99.1% and 96.4% and 100%; (compound 0.03 µM) 101% and 90.4% and 111%; (compound 0.0949 µM) 73% and 49% and 66.3%; (compound 0.3 µM) 13.4% and 14.2% and 11.2%; (compound 0.949 µM) 1.66% and 1.1% and 1.46%; (compound 3 µM) 0.54% and 0.67% and 1%. Under “curve of compound”, the IC50 is 148 nM and 96.5 nM and 134 nM.
`Cn1ncnc1[C@H]1c2n[nH]c(=O)c3cc(F)cc(c23)N[C@@H]1c1ccc(F)cc1`: the viability, T/C was 98.5% and 97% and 84.1% (compound 0.00949 µM); 96.8% and 96.3% and 103% (compound 0.03 µM); 95.9% and 95.6% and 97.9% (compound 0.0949 µM); 92.7% and 92.3% and 93.1% (compound 0.3 µM); 93.1% and 85% and 89.9% (compound 0.949 µM); 9.44% and 11.2% and 10.9% (compound 3 µM). For the same compound, under “curve of compound”, the IC50 was 1720 nM and 1640 nM and 1700 nM.
For `Cn1nnc2c(C(N)=O)ncn2c1=O`, the viability, T/C by setting is: (compound 1 µM) 101% [middle of 10 runs]; (compound 3.16 µM) 101% [middle of 10 runs]; (compound 10 µM) 100% [middle of 10 runs]; (compound 31.6 µM) 102% [middle of 10 runs]; (compound 100 µM) 103% [middle of 10 runs]. The IC50 under setting [1] is over 100000 nM.
Regarding `O=C(c1cc(Cc2n[nH]c(=O)c3ccccc23)ccc1F)N1CCN(C(=O)C2CC2)CC1`, the viability, T/C was 103% and 97.1% and 105% (compound 0.0949 µM); 104% and 106% and 113% (compound 0.3 µM); 101% and 97.6% and 107% (compound 0.949 µM); 94.8% and 97.7% and 110% (compound 3 µM); 84.8% and 83.9% and 106% (compound 9.49 µM); 56.2% and 53.6% and 74.1% (compound 30 µM). Besides, the IC50 (curve of compound) is over 30000 nM.
Turning to `[2H]c1nc(C)nc([2H])c1-c1cc(NC[C@@H](C)c2cccc3c(C(=O)NC)ccnc23)ncn1`, the viability, T/C was 109% and 102% and 93.6% (compound 0.0316 µM); 109% and 103% and 105% (compound 0.1 µM); 106% and 101% and 113% (compound 0.316 µM); 105% (2×) and 107% (compound 1 µM); 114% and 103% (2×) (compound 3.16 µM); 112% and 102% and 105% (compound 10 µM). The IC50 (curve of compound) is over 10000 nM.
